Key:
[1] = system: rice; test: Test D flooded paddy test; format: in vivo, Oryza sativa; conditions: 250 g ai/ha, applied to paddy water, visual rating after 13 to 14 days, scale 0 to 100 (0 no effect, 100 complete control)
How it was run: (§1)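 At the 2-leaf stage, floodwater 3 cm deep received the test compound; that depth persisted throughout. Plants scored visually 13 to 14 days on, 0 (no effect) to 100 (complete control), dash indicating no result.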

[2] = system: oat, wild; test: Test C postemergence; format: in vivo, Avena fatua; conditions: 10 days, 0 to 100 scale (0 no effect, 100 complete control)
How it was run: (§2)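 Test material, in non-phytotoxic solvent with surfactant, was sprayed on the soil directly after seeding (preemergence) or on young plants of 2–10 cm with one to two leaves (postemergence). Greenhouse, 10 days; 0–100 visual control scale.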

[3] = system: ryegrass, Italian; test: Test C preemergence; format: in vivo, Lolium multiflorum; conditions: for Ryegrass, Italian plant response rating: 500 g ai/ha, preemergence, 0 to 100 scale (0 no effect, 100 complete control); for Plant response rating, Ryegrass, Italian: Preemergence, 125 g ai/ha, 0 to 100 scale, 0 no effect, 100 complete control
How it was run: as §2

[4] = system: pigweed, palmer; test: Test C postemergence; format: in vivo, Amaranthus palmeri; conditions: 10 days, 0 to 100 scale (0 no effect, 100 complete control)
How it was run: as §2

[5] = system: ducksalad; test: Test D flooded paddy test; format: in vivo, Heteranthera limosa; conditions: 250 g ai/ha, applied to paddy water, visual rating after 13 to 14 days, scale 0 to 100 (0 no effect, 100 complete control)
How it was run: as §1

[6] = system: galium; test: Test C postemergence; format: in vivo, Galium aparine; conditions: 10 days, 0 to 100 scale (0 no effect, 100 complete control)
How it was run: as §2

[7] = system: kochia; test: Test C postemergence; format: in vivo, Bassia scoparia; conditions: 10 days, 0 to 100 scale (0 no effect, 100 complete control)
How it was run: as §2

[8] = system: corn; test: Test C postemergence; format: in vivo, Zea mays; conditions: 10 days, 0 to 100 scale (0 no effect, 100 complete control)
How it was run: as §2

[9] = system: soybean; test: Test C preemergence; format: in vivo, Glycine max; conditions: for Soybean plant response rating: 500 g ai/ha, preemergence, 0 to 100 scale (0 no effect, 100 complete control); for Plant response rating, Soybean: Preemergence, 125 g ai/ha, 0 to 100 scale, 0 no effect, 100 complete control
How it was run: as §2

[10] = system: horseweed; test: Test C postemergence; format: in vivo, Erigeron canadensis; conditions: 10 days, 0 to 100 scale (0 no effect, 100 complete control)
How it was run: as §2

[11] = system: barnyardgrass; test: Test D flooded paddy test; format: in vivo, Echinochloa crus-galli; conditions: 250 g ai/ha, applied to paddy water, visual rating after 13 to 14 days, scale 0 to 100 (0 no effect, 100 complete control)
How it was run: as §1

[12] = system: wheat; test: Test C postemergence; format: in vivo, Triticum aestivum; conditions: 10 days, 0 to 100 scale (0 no effect, 100 complete control)
How it was run: as §2

[13] = system: wheat; test: Test C preemergence; format: in vivo, Triticum aestivum; conditions: for Wheat plant response rating: 500 g ai/ha, preemergence, 0 to 100 scale (0 no effect, 100 complete control); for Plant response rating, Wheat: Preemergence, 125 g ai/ha, 0 to 100 scale, 0 no effect, 100 complete control
How it was run: as §2

[14] = system: ryegrass, Italian; test: Test C postemergence; format: in vivo, Lolium multiflorum; conditions: 10 days, 0 to 100 scale (0 no effect, 100 complete control)
How it was run: as §2

[15] = system: blackgrass; test: Test C postemergence; format: in vivo, Alopecurus myosuroides; conditions: 10 days, 0 to 100 scale (0 no effect, 100 complete control)
How it was run: as §2

[16] = system: green foxtail; test: Test C preemergence; format: in vivo, Setaria viridis; conditions: for Foxtail, Green plant response rating: 500 g ai/ha, preemergence, 0 to 100 scale (0 no effect, 100 complete control); for Plant response rating, Foxtail, Green: Preemergence, 125 g ai/ha, 0 to 100 scale, 0 no effect, 100 complete control
How it was run: as §2

[17] = system: ragweed; test: Test C preemergence; format: in vivo, Ambrosia artemisiifolia; conditions: for Ragweed plant response rating: 500 g ai/ha, preemergence, 0 to 100 scale (0 no effect, 100 complete control); for Plant response rating, Ragweed: Preemergence, 125 g ai/ha, 0 to 100 scale, 0 no effect, 100 complete control
How it was run: as §2

[18] = system: barnyardgrass; test: Test C postemergence; format: in vivo, Echinochloa crusgalli; conditions: 10 days, 0 to 100 scale (0 no effect, 100 complete control)
How it was run: as §2

[19] = system: pigweed, palmer; test: Test C preemergence; format: in vivo, Amaranthus palmeri; conditions: for Pigweed, Palmer plant response rating: 500 g ai/ha, preemergence, 0 to 100 scale (0 no effect, 100 complete control); for Plant response rating, Pigweed, Palmer: Preemergence, 125 g ai/ha, 0 to 100 scale, 0 no effect, 100 complete control
How it was run: as §2

[20] = system: sedge, umbrella; test: Test D flooded paddy test; format: in vivo, Cyperus difformis; conditions: 250 g ai/ha, applied to paddy water, visual rating after 13 to 14 days, scale 0 to 100 (0 no effect, 100 complete control)
How it was run: as §1

[21] = system: soybean; test: Test C postemergence; format: in vivo, Glycine max; conditions: 10 days, 0 to 100 scale (0 no effect, 100 complete control)
How it was run: as §2

[22] = system: barnyardgrass; test: Test C preemergence; format: in vivo, Echinochloa crusgalli; conditions: for Barnyardgrass plant response rating: 500 g ai/ha, preemergence, 0 to 100 scale (0 no effect, 100 complete control); for Plant response rating, Barnyardgrass: Preemergence, 125 g ai/ha, 0 to 100 scale, 0 no effect, 100 complete control
How it was run: as §2

[23] = system: corn; test: Test C preemergence; format: in vivo, Zea mays; conditions: for Corn plant response rating: 500 g ai/ha, preemergence, 0 to 100 scale (0 no effect, 100 complete control); for Plant response rating, Corn: Preemergence, 125 g ai/ha, 0 to 100 scale, 0 no effect, 100 complete control
How it was run: as §2

[24] = system: blackgrass; test: Test C preemergence; format: in vivo, Alopecurus myosuroides; conditions: for Blackgrass plant response rating: 500 g ai/ha, preemergence, 0 to 100 scale (0 no effect, 100 complete control); for Plant response rating, Blackgrass: Preemergence, 125 g ai/ha, 0 to 100 scale, 0 no effect, 100 complete control
How it was run: as §2

[25] = system: green foxtail; test: Test C postemergence; format: in vivo, Setaria viridis; conditions: 10 days, 0 to 100 scale (0 no effect, 100 complete control)
How it was run: as §2

[26] = system: kochia; test: Test C preemergence; format: in vivo, Bassia scoparia; conditions: for Kochia plant response rating: 500 g ai/ha, preemergence, 0 to 100 scale (0 no effect, 100 complete control); for Plant response rating, Kochia: Preemergence, 125 g ai/ha, 0 to 100 scale, 0 no effect, 100 complete control
How it was run: as §2

[27] = system: ragweed; test: Test C postemergence; format: in vivo, Ambrosia artemisiifolia; conditions: 10 days, 0 to 100 scale (0 no effect, 100 complete control)
How it was run: as §2

Cc1ccc(-n2cnc(C(C)O)n2)cc1C(=O)N1CC(C)Oc2c(Cl)cccc21 (mixture of isomers) [Compound 358]
Plant response rating, Rice (Flood) [1]: 15 | Plant response rating, Oat, Wild ([2]; 500 g ai/ha, postemergence): 80 | Plant response rating, Oat, Wild ([2]; Postemergence, 125 g ai/ha): 30 | Ryegrass, Italian plant response rating [3]: 100 | Plant response rating, Ryegrass, Italian [3]: 90 | Plant response rating, Pigweed, Palmer ([4]; 500 g ai/ha, postemergence): 80 | Plant response rating, Pigweed, Palmer ([4]; Postemergence, 125 g ai/ha): 50 | Plant response rating, Ducksalad (Flood) [5]: 95 | Plant response rating, Galium ([6]; 500 g ai/ha, postemergence): 100 | Plant response rating, Galium ([6]; Postemergence, 125 g ai/ha): 100 | Plant response rating, Kochia ([7]; 500 g ai/ha, postemergence): 70 | Plant response rating, Kochia ([7]; Postemergence, 125 g ai/ha): 40 | Plant response rating, Corn ([8]; 500 g ai/ha, postemergence): 90 | Plant response rating, Corn ([8]; Postemergence, 125 g ai/ha): 90 | Soybean plant response rating [9]: 100 | Plant response rating, Soybean [9]: 100 | Plant response rating, Horseweed ([10]; 500 g ai/ha, postemergence): 90 | Plant response rating, Horseweed ([10]; Postemergence, 125 g ai/ha): 70 | Plant response rating, Barnyardgrass (Flood) [11]: 30 | Plant response rating, Wheat ([12]; 500 g ai/ha, postemergence): 80 | Plant response rating, Wheat ([12]; Postemergence, 125 g ai/ha): 50 | Wheat plant response rating [13]: 90 | Plant response rating, Wheat [13]: 50 | Plant response rating, Ryegrass, Italian ([14]; 500 g ai/ha, postemergence): 100 | Plant response rating, Ryegrass, Italian ([14]; Postemergence, 125 g ai/ha): 90 | Plant response rating, Blackgrass ([15]; 500 g ai/ha, postemergence): 100 | Plant response rating, Blackgrass ([15]; Postemergence, 125 g ai/ha): 90 | Foxtail, Green plant response rating [16]: 100 | Plant response rating, Foxtail, Green [16]: 100 | Ragweed plant response rating [17]: 90 | Plant response rating, Ragweed [17]: 70 | Plant response rating, Barnyardgrass ([18]; 500 g ai/ha, postemergence): 100 | Plant response rating, Barnyardgrass ([18]; Postemergence, 125 g ai/ha): 90 | Pigweed, Palmer plant response rating [19]: 100 | Plant response rating, Pigweed, Palmer [19]: 100 | Plant response rating, Sedge, Umbrella (Flood) [20]: 90 | Plant response rating, Soybean ([21]; 500 g ai/ha, postemergence): 100 | Plant response rating, Soybean ([21]; Postemergence, 125 g ai/ha): 100 | Barnyardgrass plant response rating [22]: 100 | Plant response rating, Barnyardgrass [22]: 100 | Corn plant response rating [23]: 70 | Plant response rating, Corn [23]: 50 | Blackgrass plant response rating [24]: 90 | Plant response rating, Blackgrass [24]: 80 | Plant response rating, Foxtail, Green ([25]; 500 g ai/ha, postemergence): 90 | Plant response rating, Foxtail, Green ([25]; Postemergence, 125 g ai/ha): 90 | Kochia plant response rating [26]: 100 | Plant response rating, Kochia [26]: 20 | Plant response rating, Ragweed ([27]; 500 g ai/ha, postemergence): 80 | Plant response rating, Ragweed ([27]; Postemergence, 125 g ai/ha): 50

CC(=O)c1ncn(-c2ccc(C)c(C(=O)N3C[C@H](C)Oc4c(Cl)cccc43)c2)n1 [Compound 360]
Plant response rating, Rice (Flood) [1]: 15 | Plant response rating, Oat, Wild ([2]; 500 g ai/ha, postemergence): 90 | Plant response rating, Oat, Wild ([2]; Postemergence, 125 g ai/ha): 30 | Ryegrass, Italian plant response rating [3]: 90 | Plant response rating, Ryegrass, Italian [3]: 80 | Plant response rating, Pigweed, Palmer ([4]; 500 g ai/ha, postemergence): 90 | Plant response rating, Pigweed, Palmer ([4]; Postemergence, 125 g ai/ha): 60 | Plant response rating, Ducksalad (Flood) [5]: 100 | Plant response rating, Galium ([6]; 500 g ai/ha, postemergence): 100 | Plant response rating, Galium ([6]; Postemergence, 125 g ai/ha): 100 | Plant response rating, Kochia ([7]; 500 g ai/ha, postemergence): 70 | Plant response rating, Kochia ([7]; Postemergence, 125 g ai/ha): 20 | Plant response rating, Corn ([8]; 500 g ai/ha, postemergence): 90 | Plant response rating, Corn ([8]; Postemergence, 125 g ai/ha): 90 | Soybean plant response rating [9]: 100 | Plant response rating, Soybean [9]: 80 | Plant response rating, Horseweed ([10]; 500 g ai/ha, postemergence): 30 | Plant response rating, Barnyardgrass (Flood) [11]: 45 | Plant response rating, Wheat ([12]; 500 g ai/ha, postemergence): 50 | Plant response rating, Wheat ([12]; Postemergence, 125 g ai/ha): 30 | Wheat plant response rating [13]: 80 | Plant response rating, Wheat [13]: 40 | Plant response rating, Ryegrass, Italian ([14]; 500 g ai/ha, postemergence): 100 | Plant response rating, Ryegrass, Italian ([14]; Postemergence, 125 g ai/ha): 70 | Plant response rating, Blackgrass ([15]; 500 g ai/ha, postemergence): 90 | Plant response rating, Blackgrass ([15]; Postemergence, 125 g ai/ha): 80 | Foxtail, Green plant response rating [16]: 100 | Plant response rating, Foxtail, Green [16]: 100 | Ragweed plant response rating [17]: 100 | Plant response rating, Ragweed [17]: 80 | Plant response rating, Barnyardgrass ([18]; 500 g ai/ha, postemergence): 100 | Plant response rating, Barnyardgrass ([18]; Postemergence, 125 g ai/ha): 90 | Pigweed, Palmer plant response rating [19]: 90 | Plant response rating, Pigweed, Palmer [19]: 30 | Plant response rating, Sedge, Umbrella (Flood) [20]: 90 | Plant response rating, Soybean ([21]; 500 g ai/ha, postemergence): 100 | Plant response rating, Soybean ([21]; Postemergence, 125 g ai/ha): 100 | Barnyardgrass plant response rating [22]: 100 | Plant response rating, Barnyardgrass [22]: 100 | Corn plant response rating [23]: 70 | Plant response rating, Corn [23]: 60 | Blackgrass plant response rating [24]: 100 | Plant response rating, Blackgrass [24]: 80 | Plant response rating, Foxtail, Green ([25]; 500 g ai/ha, postemergence): 90 | Plant response rating, Foxtail, Green ([25]; Postemergence, 125 g ai/ha): 90 | Kochia plant response rating [26]: 80 | Plant response rating, Kochia [26]: 20 | Plant response rating, Ragweed ([27]; 500 g ai/ha, postemergence): 80 | Plant response rating, Ragweed ([27]; Postemergence, 125 g ai/ha): 50
